From patent US12234232B2, “Aromatic heterocyclic compound with kinase inhibitory activity” (SHANGHAI ENNOVABIO PHARMACEUTICALS CO., LTD., priority 2018, dated 2025)

What was measured:
[1] = target: T1, JAK1 (Homo sapiens, UniProt P23458); assay: Cellular JAK1 activity assay: IL-6-stimulated STAT3 phosphorylation in TF-1 cells; format: cell-based; design: endogenous in cells; host or cells: TF-1 cells (ATCC); conditions: IL-6 (30 ng/mL), pSTAT3, read-out: IC50 Cell JAK1
Description: (§1) In TF-1 cells, IL-6 stimulation leads to phosphorylation of STAT3 through JAK1, while EPO stimulants phosphorylation of STAT5 via JAK2.
(§2) TF-1 cells were obtained from American Type Culture Collection (ATCC). TF-1 cells were starved overnight (cell density was 100,000 cells/well at plating) in OptiMEM medium without phenol red containing 0.5% fetal bovine serum (FBS), 0.1 mM non-essential amino acids (NEAA), 1 mM sodium pyruvate at 37° C. The compound was serially diluted in DMSO, added to TF-1 cells and incubated at 37° C. for 20 minutes. The final concentration of DMSO was 0.2%. Then, human recombinant cytokine IL-6 (30 ng/mL) or EPO (10 U/mL) was added to the wells containing TF-1 cells. After the cell plate was incubated for 30 minutes, cells were lysed, and the phosphorylation of STAT3 (IL-6) or STAT5 (EPO) in the cell lysate (pSTAT3/total STAT3 Elisa Kit: CST #7300C/CST #7305C; pSTAT5 and total STAT5 Elisa Kit: Abcam #ab205715) was measured. The IC50 value was determined as the concentration of the compound required to inhibit STAT phosphorylation by 50% relative to the measured DMSO control.

[2] = target: T2, JAK3 protein (Homo sapiens, UniProt P52333); assay: In vitro JAK3 kinase activity assay (HTRF kinEASE TK); format: biochemical; conditions: 0.75 μM ATP, 25 minutes, room temperature; read-out: IC50 JAK3 (enzyme activity assay)
T2 construct: purchased Carna Biosciences
T2 sequence (P52333 1-1124): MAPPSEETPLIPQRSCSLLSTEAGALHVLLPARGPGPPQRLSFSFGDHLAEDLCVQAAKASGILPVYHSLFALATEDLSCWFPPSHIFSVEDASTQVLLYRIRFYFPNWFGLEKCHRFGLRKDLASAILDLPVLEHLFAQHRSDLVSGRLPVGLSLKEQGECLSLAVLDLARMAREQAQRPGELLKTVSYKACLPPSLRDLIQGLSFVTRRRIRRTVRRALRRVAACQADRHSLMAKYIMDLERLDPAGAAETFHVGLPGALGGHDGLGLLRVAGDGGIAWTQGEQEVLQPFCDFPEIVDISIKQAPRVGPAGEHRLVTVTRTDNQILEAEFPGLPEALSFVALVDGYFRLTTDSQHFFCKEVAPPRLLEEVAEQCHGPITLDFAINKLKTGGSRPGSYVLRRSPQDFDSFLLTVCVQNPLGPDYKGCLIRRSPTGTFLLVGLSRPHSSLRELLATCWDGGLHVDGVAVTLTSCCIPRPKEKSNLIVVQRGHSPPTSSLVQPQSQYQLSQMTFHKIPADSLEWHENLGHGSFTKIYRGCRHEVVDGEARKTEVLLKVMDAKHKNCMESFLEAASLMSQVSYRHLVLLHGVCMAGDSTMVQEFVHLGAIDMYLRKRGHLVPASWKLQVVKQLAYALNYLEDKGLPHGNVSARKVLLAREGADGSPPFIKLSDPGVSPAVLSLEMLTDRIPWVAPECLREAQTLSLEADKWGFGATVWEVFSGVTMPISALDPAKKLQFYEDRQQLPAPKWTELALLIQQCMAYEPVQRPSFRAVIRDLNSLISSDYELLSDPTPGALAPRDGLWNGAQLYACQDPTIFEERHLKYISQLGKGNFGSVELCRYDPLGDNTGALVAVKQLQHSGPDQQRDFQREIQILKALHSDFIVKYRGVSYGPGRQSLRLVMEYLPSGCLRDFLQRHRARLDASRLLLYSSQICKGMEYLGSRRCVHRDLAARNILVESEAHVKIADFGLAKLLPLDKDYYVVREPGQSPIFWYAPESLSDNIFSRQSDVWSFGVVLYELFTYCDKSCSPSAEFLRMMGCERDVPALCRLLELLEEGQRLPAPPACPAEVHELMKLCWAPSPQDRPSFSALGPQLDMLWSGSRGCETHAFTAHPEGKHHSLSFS
Description: (§3) Recombinant human JAK1 protein was purchased from Thermo Fisher. JAK2 and JAK3 proteins were purchased from Carna Biosciences. HTRF kinEASE TK kit was purchased from Cisbio Bioassays. BioTek microplate reader Synergy Neo 2 was used to read the plate.
(§4) The test compounds were of 4-fold serial dilution, and the final concentration ranged from 10 μM to 0.04 nM in duplicates for each concentration. The concentration of DMSO in the reaction system was 1%.
(§5) The reaction included 0.004 ng/gi JAK 3 protein kinase, 1 μM TK Substrate-biotin peptide substrate, 0.75 μM ATP, 1× enzymatic buffer, 5 mM MgCl2, and 1 mM DTT. The detection plate was White Proxiplate 384-Plus plate (PerkinElmer), and the mixture (10 μl) was reacted at room temperature for 25 minutes.
(§6) Reaction detection: 10 μl of detection reagent was added to the reaction plate containing final concentration of 0.125 μM of SA-XL665 and 5 μl 1×TK-Antibody. The mixture was incubated overnight at room temperature. The plate was read using Synergy Neo 2.
(§7) Data analysis: 665/620 Ratio was converted into inhibition rate (%) through the following formula: inhibition rate (%)=(Ratiomax−Ratiotest)/(Ratiomax−Ratiomin)×100%. Ratiomax is a positive control without detection compound, Ratiomin is a negative control without detection compound and kinase, Ratiotest is the detection value of each concentration of different compounds. 4 parameter curve fitting was performed to measure the IC50 (nM) values. The details are shown in, Table 1.

[3] = target: T3, JAK2 (Homo sapiens, UniProt O60674); assay: Cellular JAK2 activity assay: EPO-stimulated STAT5 phosphorylation in TF-1 cells; format: cell-based; design: endogenous in cells; host or cells: TF-1 cells (ATCC); conditions: EPO (10 U/mL), pSTAT5, read-out: IC50 Cell JAK2
T3 sequence (O60674 whole entry): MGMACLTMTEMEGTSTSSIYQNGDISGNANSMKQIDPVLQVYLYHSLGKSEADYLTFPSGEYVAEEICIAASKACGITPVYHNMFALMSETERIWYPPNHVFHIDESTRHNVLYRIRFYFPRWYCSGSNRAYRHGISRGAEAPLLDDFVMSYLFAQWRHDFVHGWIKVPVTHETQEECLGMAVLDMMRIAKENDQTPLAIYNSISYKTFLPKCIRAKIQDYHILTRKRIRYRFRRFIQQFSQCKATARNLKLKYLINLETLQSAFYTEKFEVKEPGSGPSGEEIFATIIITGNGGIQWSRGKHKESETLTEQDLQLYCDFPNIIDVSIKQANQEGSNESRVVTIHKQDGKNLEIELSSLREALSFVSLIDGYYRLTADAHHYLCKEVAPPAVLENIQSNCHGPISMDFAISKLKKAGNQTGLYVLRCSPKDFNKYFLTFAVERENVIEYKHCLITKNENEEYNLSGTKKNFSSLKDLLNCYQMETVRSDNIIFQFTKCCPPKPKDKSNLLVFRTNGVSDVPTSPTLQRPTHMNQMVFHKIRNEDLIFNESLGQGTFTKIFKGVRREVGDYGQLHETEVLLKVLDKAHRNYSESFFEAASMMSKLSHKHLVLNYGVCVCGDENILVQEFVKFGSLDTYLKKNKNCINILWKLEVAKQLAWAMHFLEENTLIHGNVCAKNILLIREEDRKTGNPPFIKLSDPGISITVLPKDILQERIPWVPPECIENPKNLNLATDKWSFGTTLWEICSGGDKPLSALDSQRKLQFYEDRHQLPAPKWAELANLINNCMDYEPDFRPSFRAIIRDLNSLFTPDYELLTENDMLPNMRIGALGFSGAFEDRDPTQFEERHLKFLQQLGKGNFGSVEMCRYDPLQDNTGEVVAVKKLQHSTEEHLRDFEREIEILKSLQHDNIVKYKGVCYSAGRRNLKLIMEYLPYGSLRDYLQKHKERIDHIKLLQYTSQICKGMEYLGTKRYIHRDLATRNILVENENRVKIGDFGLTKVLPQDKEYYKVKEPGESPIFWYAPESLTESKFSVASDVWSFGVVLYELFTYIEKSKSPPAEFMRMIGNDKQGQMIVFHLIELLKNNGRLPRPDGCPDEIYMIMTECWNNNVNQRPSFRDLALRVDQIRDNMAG
Description: as §1, §2

[4] = target: T1, JAK1; assay: In vitro JAK1 kinase activity assay (HTRF kinEASE TK); format: biochemical; design: purchased Thermo Fisher; conditions: 1.1 μM ATP, 60 minutes, room temperature; read-out: IC50 JAK1 (enzyme activity assay)
Description: as §3, §4
The reaction included 0.5 ng/μl JAK 1 protein kinase, 1 μM TK Substrate-biotin peptide substrate, 1.1 μM ATP, 1× enzymatic buffer, 5 mM MgCl2, 1 mM MnCl2, 1 mM DTT, and 2.5 nM SEB. The detection plate was White Proxiplate 384-Plus plate (PerkinElmer), and the mixture (10 μl) was reacted at room temperature for 60 minutes.
as §6, §7

[5] = target: T3, JAK2; assay: In vitro JAK2 kinase activity assay (HTRF kinEASE TK); format: biochemical; design: purchased Carna Biosciences; conditions: 2.7 μM ATP, 25 minutes, room temperature; read-out: IC50 JAK2 (enzyme activity assay)
Description: as §3, §4
as §5, with “included 0.001 ng/μl” for “included 0.004 ng/gi”, “JAK 2” for “JAK 3”, “substrate, 2.7” for “substrate, 0.75”
as §6, §7

[6] = Mouse pharmacokinetics; format: in vivo; conditions: CD-1 mice, 5 mg/kg, P.O.; for Cmax / half-life / AUC(0-t): mouse, po, plasma; for AUC(0-t): read-out: AUC0-24 hr
Description: Test compound was intravenously (IV) or orally (PO) administrated to CD-1 mice. Blood samples were collected at different time points as indicated below. The concentration of the compounds in the mouse plasma was determined by LC-MS/MS and related parameters were calculated. The details are as follows: the required amount of the test product was taken to prepare a solution of the required concentration for intravenous injection or oral administration. The age of the animals was about 6-8 weeks at the beginning of the dosing experiment. Blood sampling time points are 0.083 h, 0.25 h, 0.5 h, 1 h, 2 h, 4 h, 8 h and 24 h after compound administration. The Phoenix WinNonlin 7.0 software was used to calculate the pharmacokinetic parameters through the blood drug concentration data at different time points.

T1 sequence (P23458 whole entry): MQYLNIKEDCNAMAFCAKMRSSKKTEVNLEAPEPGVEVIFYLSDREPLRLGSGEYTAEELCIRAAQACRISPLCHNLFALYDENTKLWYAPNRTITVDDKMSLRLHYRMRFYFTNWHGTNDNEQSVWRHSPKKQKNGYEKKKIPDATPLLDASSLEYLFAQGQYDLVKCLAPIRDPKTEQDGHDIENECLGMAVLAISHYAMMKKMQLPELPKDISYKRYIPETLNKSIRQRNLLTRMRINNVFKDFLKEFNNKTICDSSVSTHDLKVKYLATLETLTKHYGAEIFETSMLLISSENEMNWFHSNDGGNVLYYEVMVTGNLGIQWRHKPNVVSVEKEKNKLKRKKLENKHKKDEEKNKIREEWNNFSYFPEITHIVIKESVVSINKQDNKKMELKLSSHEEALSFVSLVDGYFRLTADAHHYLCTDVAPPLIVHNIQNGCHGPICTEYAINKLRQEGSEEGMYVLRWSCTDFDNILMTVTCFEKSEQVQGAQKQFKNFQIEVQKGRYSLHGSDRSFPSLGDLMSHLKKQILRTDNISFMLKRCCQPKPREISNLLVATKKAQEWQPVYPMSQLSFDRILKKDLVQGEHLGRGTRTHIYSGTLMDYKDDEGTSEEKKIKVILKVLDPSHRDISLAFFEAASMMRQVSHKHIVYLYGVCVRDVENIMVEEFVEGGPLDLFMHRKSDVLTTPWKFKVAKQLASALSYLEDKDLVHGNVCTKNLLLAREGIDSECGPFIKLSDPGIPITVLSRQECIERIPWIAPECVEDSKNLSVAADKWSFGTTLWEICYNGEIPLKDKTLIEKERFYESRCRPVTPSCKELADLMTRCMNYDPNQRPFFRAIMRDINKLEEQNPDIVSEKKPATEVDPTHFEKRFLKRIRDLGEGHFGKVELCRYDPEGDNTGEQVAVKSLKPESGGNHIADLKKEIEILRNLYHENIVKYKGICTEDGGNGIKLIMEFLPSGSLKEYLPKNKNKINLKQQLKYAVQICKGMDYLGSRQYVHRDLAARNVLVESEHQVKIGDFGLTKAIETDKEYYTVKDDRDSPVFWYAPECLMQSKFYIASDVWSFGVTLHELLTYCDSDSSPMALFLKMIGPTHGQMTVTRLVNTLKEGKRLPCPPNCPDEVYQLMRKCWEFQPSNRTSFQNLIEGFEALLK

| Compound | IC50 [1] | IC50 [2] | IC50 [3] | IC50 [4] | IC50 [5] | F [6] | Cmax [6] | half-life [6] | AUC(0-t) [6] |
| --- | --- | --- | --- | --- | --- | --- | --- | --- | --- |
| CCC(C(=O)Nc1nccc2c(-c3nc(Nc4cccc(S(C)(=O)=O)c4F)ncc3C)c[nH]c12)N1CCN(C)CC1 (stereo in doubt) [Example 21, (R)—N-(3-(2-((2-Fluoro-3-(methylsulfonyl)phenyl)amino)-5-methylpyrimidin-4-yl)-1H-pyrrolo[2,3-c]pyridin-7-yl)-2-(4-methylpiperazin-1-yl)butanamide] | < 100 nM | 500 to 10000 nM | > 20000 nM | < 5 nM | 100 to 10000 nM | 97.1% | 264 ng/mL | 2.61 h | 1680 ng·h/mL |
| CC[C@H](C(=O)Nc1nccc2c(-c3nc(Nc4cccc(S(C)(=O)=O)c4F)ncc3C)c[nH]c12)N1CC2CCC(C1)N2C [Example 25, (R)—N-(3-(2-((2-Fluoro-3-(methylsulfonyl)phenyl)amino)-5-methylpyrimidin-4-yl)-1H-pyrrolo[2,3-c]pyridin-7-yl)-2-(8-methyl-3,8-diazabicyclo[3.2.1]octane-3-yl)butanamide] | 100 to 1000 nM | 500 to 10000 nM | > 20000 nM | < 5 nM | < 100 nM | 66.1% | 155 ng/mL | 3.57 h | 946 ng·h/mL |
